Test: Loading potential / solubility in PEG400/myristic acid vehicles and in water
Format: physicochemical
Settings: for dissolved material in aqueous solution: aqueous sample compared with Sample 3
Experimental: Vehicles for loading the active ingredient were prepared as illustrated in samples 1-4. Myristic acid (solid flakes) was dissolved in PEG400 upon warming the mixture in a warm water bath. Shaking accelerated the formation of the resulting clear solution. The following four concentrations of myristic acid (MA) in PEG400 were prepared and evaluated. Samples 1, 2, 3 and 4 were all clear solutions when the samples were allowed to attain ambient temperatures. • a. 30 ml of PEG400+1.5 grams of MA (Sample 1) • b. 30 ml of PEG400+3 grams of MA (Sample 2) • c. 30 ml of PEG400+0.75 grams of MA (Sample 3) • d. 30 ml of PEG400+2.25 grams of MA (Sample 4)
The samples as vehicles were loaded with NO enhancing agent. […] Samples 1 and 2 were initially liquid but formed a solid uniform gel over a period of several hours. Sample 3 was prepared by dissolving 0.75 grams of MA in 30 ml's of PEG400 and heating in a water bath (˜60-80 C) for ˜15 minutes. Sample 4 was prepared by dissolving 2.25 grams of MA in 30 mls of PEG400 and heating in a water bath (˜60-80 C) for ˜15 minutes. Both sample 3 and sample 4 were uniform solutions when the heating cycle was finished. Upon cooling sample 3 remained liquid whereas sample 4 formed a uniform gel.
The addition of water to the PEG400/MA based formulation can create a nonuniform emulsion that poses difficulties for topical use.
The Sample 3 solvent system was also tested as a vehicle for loading potential with the following low solubility reagents using the above method: quercetin, berberine, N-acetyl cysteine amide (NACA) and N-acetyl cysteine ethyl ester (NAC-ethylester).

With COc1cc(/C=C/C(=O)CC(=O)/C=C/c2ccc(O)c(OC)c2)ccc1O [Curcumin 95] the “dissolving of added curcumin in PEG400/myristic acid” value (1.5 grams of Curcumin 95 added to Samples 1, 2, 3 (30 ml PEG400 + MA), warmed, shaken, cooled to ambient) was “dissolving of almost all of the added curcumin”.
For COc1ccc2cc3[n+](cc2c1OC)CCc1cc2c(cc1-3)OCO2 [berberine], the “dissolved material in aqueous solution” value was “minimal dissolved material”.
For O=c1c(O)c(-c2ccc(O)c(O)c2)oc2cc(O)cc(O)c12 [quercetin], the “dissolved material in aqueous solution” value was “minimal dissolved material” and the “solubility of quercetin in sample 3 or sample 4” value (either sample 3 or sample 4 vehicle) was 200-300 mg quercetin in 30 ml.
